ChEMBL document CHEMBL1201862, “PubChem BioAssay data set” (2004)
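1) Cells in 96-well plates. 2) Compound, 48 h, 5 concentrations. 3) Linear interpolation between surrounding doses. 4) Unreached endpoint = highest concentration. GI50 marks 50% less growth.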 Calls of active or inactive are those of the source. No stated cut-off is given here; in the data, active = GI50 up to about 1.1 µM and inactive = higher.

Key:
Assay in all cases: NCI anticancer screen, dose series, 48 h
A549 = tested on: A549
SNB-19 = tested on: SNB-19
HCT-15 = tested on: HCT-15
UACC-62 = tested on: UACC-62
MDA-MB-435 = tested on: MDA-MB-435
A498 = tested on: A498
CAKI-1 = tested on: CAKI-1
NCI-H460 = tested on: NCI-H460
NCI-H23 = tested on: NCI-H23
TK-10 = tested on: TK-10
SR = tested on: SR
SN12C = tested on: SN12C
MCF7 = tested on: MCF7
HL-60 = tested on: HL-60
M14 = tested on: M14
786-0 = tested on: 786-0
OVCAR-8 = tested on: OVCAR-8
SK-MEL-28 = tested on: SK-MEL-28
U-251 = tested on: U-251
HCC 2998 = tested on: HCC 2998

| Compound | GI50 (A549) | GI50 (SNB-19) | GI50 (HCT-15) [µM] | GI50 (UACC-62) | GI50 (MDA-MB-435) | GI50 (A498) | GI50 (CAKI-1) | GI50 (NCI-H460) | GI50 (NCI-H23) | GI50 (TK-10) | GI50 (SR) | GI50 (SN12C) | GI50 (MCF7) | GI50 (HL-60) | GI50 (M14) | GI50 (786-0) | GI50 (OVCAR-8) | GI50 (SK-MEL-28) | GI50 (U-251) | GI50 (HCC 2998) |
| --- | --- | --- | --- | --- | --- | --- | --- | --- | --- | --- | --- | --- | --- | --- | --- | --- | --- | --- | --- | --- |
| Nc1nc(SCC(=O)O)nc(O)c1N | > 100 µM (inactive) | > 100 µM (inactive) | > 100 | > 100 µM (inactive) | 32.3 µM (inactive) | > 100 µM (inactive) | > 100 µM (inactive) | > 100 µM (inactive) | > 100 µM (inactive) | > 100 µM (inactive) | 22.6 µM (inactive) | 13.3 µM (inactive) | > 100 µM (inactive) | 56.1 µM (inactive) | > 100 µM (inactive) | 41.6 µM (inactive) | 78.5 µM (inactive) | > 100 µM (inactive) | > 100 µM (inactive) |  |
| O=C1OC[C@H]2[C@@H]1[C@H]1O[C@@H]2C2=C(CCC2)C1=O | > 100 µM (inactive) | > 100 µM (inactive) | > 100 | > 100 µM (inactive) | > 100 µM (inactive) | > 100 µM (inactive) |  | > 100 µM (inactive) | > 100 µM (inactive) | > 100 µM (inactive) | > 100 µM (inactive) | > 100 µM (inactive) | > 100 µM (inactive) | > 100 µM (inactive) | > 100 µM (inactive) | > 100 µM (inactive) | > 100 µM (inactive) | > 100 µM (inactive) | > 100 µM (inactive) | > 100 µM (inactive) |
| CCN1C[C@]2(C)CC[C@H](OC)C34C5C[C@@H]6[C@@H](OC)C[C@@](OC)(C5[C@H]6OCc5ccccc5)C(C13)[C@H](OC(C)=O)[C@@H]42 (stereo partly specified) | > 100 µM (inactive) | > 100 µM (inactive) | > 100 | > 100 µM (inactive) | > 100 µM (inactive) | > 100 µM (inactive) |  | 59.8 µM (inactive) | > 100 µM (inactive) | > 100 µM (inactive) | > 100 µM (inactive) | > 100 µM (inactive) | > 100 µM (inactive) | 6.95 µM (inactive) | 97.1 µM (inactive) | > 100 µM (inactive) | > 100 µM (inactive) | > 100 µM (inactive) | > 100 µM (inactive) |  |
| C[NH+]1[C@@H](Cc2ccccc2)C(=O)O[B-]1(F)c1ccccc1 (stereo partly specified) | > 100 µM (inactive) | > 100 µM (inactive) | > 100 | > 100 µM (inactive) | > 100 µM (inactive) | > 100 µM (inactive) |  | > 100 µM (inactive) | > 100 µM (inactive) | > 100 µM (inactive) | > 100 µM (inactive) | > 100 µM (inactive) | > 100 µM (inactive) | > 100 µM (inactive) | > 100 µM (inactive) | > 100 µM (inactive) | > 100 µM (inactive) | > 100 µM (inactive) | > 100 µM (inactive) | > 100 µM (inactive) |
| CCOC(=O)Oc1ccc2c(c1)c(=O)c1c(NCCN(CC)CC)ccc3nnn2c31 | 0.2 µM (active) | 1.21 µM (inactive) | 0.841 | 11.5 µM (inactive) | 3.67 µM (inactive) | 6.52 µM (inactive) |  | < 0.0209 µM (active) | 2.48 µM (inactive) | 3.19 µM (inactive) | 0.113 µM (active) | 0.809 µM (active) | 0.392 µM (active) |  | 5.2 µM (inactive) | 0.488 µM (active) | 0.577 µM (active) | 11.7 µM (inactive) | 1.73 µM (inactive) | 2.94 µM (inactive) |
| CC1OC(OC2C(O[C@H]3CC[C@@]4(C)C(=CC[C@H]5[C@@H]6C[C@@H]7O[C@]8(CC[C@@H](CO)CO8)[C@@H](C)[C@@H]7[C@@]6(C)CC[C@@H]54)C3)OC(CO)C(O)C2OC2OC(CO)C(O)C(O)C2O)C(O)C(O)C1O (stereo partly specified) | 2.07 µM (inactive) | 2.02 µM (inactive) | 1.91 | 1.83 µM (inactive) | 2.01 µM (inactive) | 2.01 µM (inactive) | 1.95 µM (inactive) | 1.78 µM (inactive) | 2.01 µM (inactive) | 1.71 µM (inactive) |  | 1.8 µM (inactive) | 1.77 µM (inactive) | 1.44 µM (inactive) | 2.04 µM (inactive) | 1.9 µM (inactive) | 1.78 µM (inactive) | 1.95 µM (inactive) | 1.79 µM (inactive) | 1.62 µM (inactive) |
| O=C1/C(=C/c2cccs2)NC(=S)N1CN1CCCC(CO)C1 (stereo unspecified) | > 100 µM (inactive) | > 100 µM (inactive) | > 100 | > 100 µM (inactive) | > 100 µM (inactive) | 32.2 µM (inactive) |  |  | > 100 µM (inactive) | > 100 µM (inactive) | > 100 µM (inactive) | > 100 µM (inactive) | > 100 µM (inactive) |  | > 100 µM (inactive) | > 100 µM (inactive) | > 100 µM (inactive) | > 100 µM (inactive) | > 100 µM (inactive) |  |
| Cc1ccc(SCN2CCCCC2)cc1.O=C(Cl)c1ccc([N+](=O)[O-])cc1 | 21.2 µM (inactive) | 19.2 µM (inactive) | 9.77 | 13.7 µM (inactive) | 10.1 µM (inactive) | 2.76 µM (inactive) | 8.87 µM (inactive) |  | 8.22 µM (inactive) | 19.4 µM (inactive) | 4.24 µM (inactive) | 4.31 µM (inactive) | 6.55 µM (inactive) | 1.67 µM (inactive) | 17.8 µM (inactive) | 15.1 µM (inactive) | 25.9 µM (inactive) | 13.4 µM (inactive) | 11.2 µM (inactive) |  |
